# Results reported in ChEMBL document CHEMBL4229327, “Chemical Approaches to Modulating Complement-Mediated Diseases” (J Med Chem, 2018).
# Peptide text beside a SMILES is read from it.
# Experiments:
# Complement factor D [1] = biological target: T1, Complement factor D (Homo sapiens, UniProt P00746); experiment: Displacement of Cy5 from recombinant human biotin labeled factor D expressed in Escherichia coli after 2 hrs by TR-FRET assay
# [2] = biological target: T2, Mannan-binding lectin serine protease 2 (Homo sapiens, UniProt O00187); experiment: Inhibition of MASP-2-mediated C4 deposition in human serum after 1 hr by ELISA
# [3] = biological target: T2, Mannan-binding lectin serine protease 2; experiment: Inhibition of MASP-2 (unknown origin) using Z-L-LysSBzl hydrochloride as substrate preincubated for 1 hr followed by substrate addition
# [4] = biological target: T3, Mannan-binding lectin serine protease 1 (Homo sapiens, UniProt P48740); experiment: Inhibition of MASP-1-mediated C3 deposition in human serum after 30 mins by ELISA
# T3 sequence (P48740 whole entry): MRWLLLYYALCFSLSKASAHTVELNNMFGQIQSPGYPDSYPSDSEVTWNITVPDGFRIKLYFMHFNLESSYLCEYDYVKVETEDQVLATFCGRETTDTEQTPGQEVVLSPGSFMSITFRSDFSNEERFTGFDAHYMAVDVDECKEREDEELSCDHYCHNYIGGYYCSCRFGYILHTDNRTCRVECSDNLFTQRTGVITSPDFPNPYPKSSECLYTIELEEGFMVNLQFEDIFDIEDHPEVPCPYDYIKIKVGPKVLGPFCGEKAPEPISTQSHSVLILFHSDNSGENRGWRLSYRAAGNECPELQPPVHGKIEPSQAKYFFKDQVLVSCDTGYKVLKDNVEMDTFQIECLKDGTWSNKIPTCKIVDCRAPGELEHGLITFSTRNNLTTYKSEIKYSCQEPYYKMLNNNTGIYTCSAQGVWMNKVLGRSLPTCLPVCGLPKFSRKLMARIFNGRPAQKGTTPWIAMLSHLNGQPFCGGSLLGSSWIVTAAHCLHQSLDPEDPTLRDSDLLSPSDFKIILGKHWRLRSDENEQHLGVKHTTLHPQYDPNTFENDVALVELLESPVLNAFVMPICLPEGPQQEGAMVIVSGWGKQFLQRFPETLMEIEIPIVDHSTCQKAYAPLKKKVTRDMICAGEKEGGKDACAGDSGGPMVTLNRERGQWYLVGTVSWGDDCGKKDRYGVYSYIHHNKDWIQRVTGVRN
# [5] = biological target: T4, C3a anaphylatoxin chemotactic receptor (Homo sapiens, UniProt Q16581); experiment: Antagonist activity at C3aR in HMDM assessed as inhibition of agonist-induced Ca2+ release; type: functional
# T4 sequence (Q16581 whole entry): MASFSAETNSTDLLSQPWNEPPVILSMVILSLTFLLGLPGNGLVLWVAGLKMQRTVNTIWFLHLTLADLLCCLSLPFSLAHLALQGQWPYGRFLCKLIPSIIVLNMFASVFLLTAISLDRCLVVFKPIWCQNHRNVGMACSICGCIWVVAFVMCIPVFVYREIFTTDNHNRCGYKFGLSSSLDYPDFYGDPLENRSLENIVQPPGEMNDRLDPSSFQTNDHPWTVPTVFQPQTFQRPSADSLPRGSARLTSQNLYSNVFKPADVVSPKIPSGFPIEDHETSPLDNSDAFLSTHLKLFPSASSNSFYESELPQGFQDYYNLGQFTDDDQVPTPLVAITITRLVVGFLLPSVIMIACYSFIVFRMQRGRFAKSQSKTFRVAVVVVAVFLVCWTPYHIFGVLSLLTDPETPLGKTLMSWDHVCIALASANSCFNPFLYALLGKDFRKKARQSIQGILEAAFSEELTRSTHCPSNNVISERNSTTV
# [6] = Half life in Wistar rat at 10 mg/kg, po or 1 mg/kg, iv; type: ADME, organism-based; settings: in vivo
# Integrin alpha-M/beta-2 [7] = biological target: T5, Integrin alpha-M/beta-2 (Homo sapiens, UniProt P05107+P11215); experiment: Antagonist activity at CR3 in carboxyfluorescein diacetate succiminidyl ester-labeled human PMN assessed as inhibition of TNF/PMA-stimulated adhesion of PMN to fibrinogen preincubated for 10 mins followed by TNF/PMA addition by fluorescence assay; type: protein-complex assay
# Integrin alpha-M/beta-2 [8] = biological target: T5, Integrin alpha-M/beta-2; experiment: Inhibition of C3bi-AP binding to CR3 derived from human PMN; type: protein-complex assay
# Complement C2 [9] = biological target: T6, Complement C2 (Homo sapiens, UniProt P06681); experiment: Inhibition of C2-mediated MAC formation in human serum by ELISA
# T6 sequence (P06681 whole entry): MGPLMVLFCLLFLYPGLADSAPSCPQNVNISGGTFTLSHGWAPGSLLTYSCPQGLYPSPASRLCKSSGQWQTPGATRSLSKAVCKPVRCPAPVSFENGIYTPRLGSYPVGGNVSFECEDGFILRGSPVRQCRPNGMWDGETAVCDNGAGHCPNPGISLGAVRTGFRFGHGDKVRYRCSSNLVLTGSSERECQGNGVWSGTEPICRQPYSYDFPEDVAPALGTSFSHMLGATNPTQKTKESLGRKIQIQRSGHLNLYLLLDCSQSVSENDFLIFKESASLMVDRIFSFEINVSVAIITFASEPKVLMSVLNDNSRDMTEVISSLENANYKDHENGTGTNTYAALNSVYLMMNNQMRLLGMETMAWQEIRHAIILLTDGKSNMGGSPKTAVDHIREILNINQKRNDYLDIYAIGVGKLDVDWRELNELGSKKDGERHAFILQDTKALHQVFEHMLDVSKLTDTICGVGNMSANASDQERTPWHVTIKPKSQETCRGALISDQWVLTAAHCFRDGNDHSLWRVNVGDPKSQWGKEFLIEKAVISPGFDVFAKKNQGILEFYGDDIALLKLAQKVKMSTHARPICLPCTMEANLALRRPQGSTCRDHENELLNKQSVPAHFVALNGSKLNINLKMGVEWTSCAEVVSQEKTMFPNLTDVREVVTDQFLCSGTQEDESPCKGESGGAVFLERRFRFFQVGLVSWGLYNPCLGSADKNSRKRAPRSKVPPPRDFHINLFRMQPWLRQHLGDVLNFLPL
# Complement C2 [10] = biological target: T6, Complement C2; experiment: Inhibition of human C2-mediated C3 processing after 24 hrs by SDS-PAGE
# Complement C2 [11] = biological target: T6, Complement C2; experiment: Competitive/reversible inhibition of human C2 using Ac-SHLGLAR-pNA as substrate
# [12] = Oral bioavailability in Wistar rat at 10 mg/kg; type: ADME, organism-based; settings: in vivo
# [13] = biological target: T4, C3a anaphylatoxin chemotactic receptor; experiment: Agonist activity at C3aR in HMDM assessed as induction of Ca2+ release; type: functional
# [14] = biological target: T7, C5a anaphylatoxin chemotactic receptor 1 (Homo sapiens, UniProt P21730); experiment: Antagonist activity at recombinant human C5aR1 expressed in Sf9 insect cell membranes co-expressing G-alphai2,G-beta1 and G-gamma2 assessed as inhibition of recombinant human C5a-induced [35S]GTPgammaS binding after 60 mins by liquid scintillation spectrometry; type: functional
# T7 sequence (P21730 whole entry): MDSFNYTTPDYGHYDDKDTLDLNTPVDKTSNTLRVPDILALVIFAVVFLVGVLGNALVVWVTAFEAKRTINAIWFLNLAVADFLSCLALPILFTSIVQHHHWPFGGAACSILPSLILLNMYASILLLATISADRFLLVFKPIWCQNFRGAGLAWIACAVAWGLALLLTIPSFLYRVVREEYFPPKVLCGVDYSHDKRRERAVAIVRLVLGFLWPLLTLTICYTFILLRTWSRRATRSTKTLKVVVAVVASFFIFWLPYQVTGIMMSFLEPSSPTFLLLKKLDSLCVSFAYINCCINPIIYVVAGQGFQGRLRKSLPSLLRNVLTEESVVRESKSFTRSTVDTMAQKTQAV
# [15] = biological target: T4, C3a anaphylatoxin chemotactic receptor; experiment: Antagonist activity at human C3aR expressed in RBL-2H3 cells assessed as inhibition of C3a-induced intracellular calcium mobilization; type: functional, cell-based
# [16] = biological target: T4, C3a anaphylatoxin chemotactic receptor; experiment: Displacement of 125I-C3a from human C3aR expressed in RBL-2H3 cells; type: cell-based
# Complement C3 = Complement C3 (Homo sapiens, UniProt P01024); experiment: Inhibition of C3 in human serum by ELISA
# Complement factor B = Complement factor B (Homo sapiens, UniProt P00751); experiment: Displacement of Cy5 from recombinant human biotin-labeled factor B expressed in drosophila cells after 2 hrs by TR-FRET assay; type: cell-based
# [17] = Inhibition of factor D in […]-activated dog serum assessed as decrease in human erythrocyte lysis; settings: Canis lupus familiaris
# [18] = Inhibition of factor D in […]-activated cat serum assessed as decrease in human erythrocyte lysis; settings: Felis catus
# [19] = biological target: T4, C3a anaphylatoxin chemotactic receptor; experiment: Displacement of 125I-C3a from recombinant human C3aR expressed in HEK293 cell membranes after 3 hrs by scintillation proximity assay
# [20] = biological target: T2, Mannan-binding lectin serine protease 2; experiment: Inhibition of MASP2 (unknown origin)-induced lectin pathway by ELISA
# [21] = biological target: T2, Mannan-binding lectin serine protease 2; experiment: Inhibition of recombinant […] fragment of MASP-2 (unknown origin)
# Complement factor D [22] = biological target: T1, Complement factor D
# Description: Inhibition of factor D in human serum assessed as decrease in C3 deposition on PNH erythrocytes
# T2 sequence (O00187 16-444 limits assumed): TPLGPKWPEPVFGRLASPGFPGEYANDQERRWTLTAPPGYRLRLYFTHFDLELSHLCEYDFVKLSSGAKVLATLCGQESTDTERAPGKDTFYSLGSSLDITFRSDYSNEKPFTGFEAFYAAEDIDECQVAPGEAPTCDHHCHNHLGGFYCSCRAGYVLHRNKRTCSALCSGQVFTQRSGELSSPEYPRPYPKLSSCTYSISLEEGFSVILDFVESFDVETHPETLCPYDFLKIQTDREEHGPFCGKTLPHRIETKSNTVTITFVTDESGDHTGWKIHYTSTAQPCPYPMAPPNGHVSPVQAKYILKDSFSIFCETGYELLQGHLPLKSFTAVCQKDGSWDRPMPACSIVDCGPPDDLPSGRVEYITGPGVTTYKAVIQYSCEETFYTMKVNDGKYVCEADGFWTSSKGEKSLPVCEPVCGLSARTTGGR
# T2 sequence (O00187 445-686 limits assumed): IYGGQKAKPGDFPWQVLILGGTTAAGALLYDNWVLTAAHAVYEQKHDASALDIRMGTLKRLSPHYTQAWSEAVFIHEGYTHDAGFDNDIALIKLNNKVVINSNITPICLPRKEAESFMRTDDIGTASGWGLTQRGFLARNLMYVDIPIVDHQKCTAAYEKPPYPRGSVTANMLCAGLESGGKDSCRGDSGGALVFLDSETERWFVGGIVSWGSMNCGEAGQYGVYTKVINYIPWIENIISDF
# T5 sequence (P05107 23-769 limits assumed, other chains not shown): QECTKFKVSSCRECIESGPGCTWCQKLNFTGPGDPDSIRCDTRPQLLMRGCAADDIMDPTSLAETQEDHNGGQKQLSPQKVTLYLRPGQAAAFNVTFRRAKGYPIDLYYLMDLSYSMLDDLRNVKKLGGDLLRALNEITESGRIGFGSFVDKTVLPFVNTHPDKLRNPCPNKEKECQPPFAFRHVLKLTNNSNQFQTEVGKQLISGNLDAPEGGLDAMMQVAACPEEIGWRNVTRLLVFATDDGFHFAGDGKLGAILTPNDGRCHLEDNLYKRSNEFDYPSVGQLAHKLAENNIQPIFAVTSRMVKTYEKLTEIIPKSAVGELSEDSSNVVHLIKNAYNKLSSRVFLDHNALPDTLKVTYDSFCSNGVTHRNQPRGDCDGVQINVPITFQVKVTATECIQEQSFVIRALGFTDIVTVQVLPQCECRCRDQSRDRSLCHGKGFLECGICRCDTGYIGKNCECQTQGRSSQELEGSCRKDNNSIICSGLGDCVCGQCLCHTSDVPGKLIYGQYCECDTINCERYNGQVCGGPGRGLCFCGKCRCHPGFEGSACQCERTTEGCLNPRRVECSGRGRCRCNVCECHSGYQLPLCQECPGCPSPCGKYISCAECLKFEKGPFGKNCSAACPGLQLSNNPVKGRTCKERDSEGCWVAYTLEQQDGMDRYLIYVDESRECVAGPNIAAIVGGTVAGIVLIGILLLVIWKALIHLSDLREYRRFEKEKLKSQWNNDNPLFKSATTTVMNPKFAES
# T1 sequence (P00746 whole entry): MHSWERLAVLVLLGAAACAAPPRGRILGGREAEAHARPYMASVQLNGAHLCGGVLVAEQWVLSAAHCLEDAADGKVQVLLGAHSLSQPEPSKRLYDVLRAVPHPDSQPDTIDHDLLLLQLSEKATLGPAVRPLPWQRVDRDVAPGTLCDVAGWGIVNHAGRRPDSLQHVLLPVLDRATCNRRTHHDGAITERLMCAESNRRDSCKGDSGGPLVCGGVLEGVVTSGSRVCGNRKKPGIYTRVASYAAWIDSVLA
# Complement C3, sequence (P01024 23-667 limits assumed): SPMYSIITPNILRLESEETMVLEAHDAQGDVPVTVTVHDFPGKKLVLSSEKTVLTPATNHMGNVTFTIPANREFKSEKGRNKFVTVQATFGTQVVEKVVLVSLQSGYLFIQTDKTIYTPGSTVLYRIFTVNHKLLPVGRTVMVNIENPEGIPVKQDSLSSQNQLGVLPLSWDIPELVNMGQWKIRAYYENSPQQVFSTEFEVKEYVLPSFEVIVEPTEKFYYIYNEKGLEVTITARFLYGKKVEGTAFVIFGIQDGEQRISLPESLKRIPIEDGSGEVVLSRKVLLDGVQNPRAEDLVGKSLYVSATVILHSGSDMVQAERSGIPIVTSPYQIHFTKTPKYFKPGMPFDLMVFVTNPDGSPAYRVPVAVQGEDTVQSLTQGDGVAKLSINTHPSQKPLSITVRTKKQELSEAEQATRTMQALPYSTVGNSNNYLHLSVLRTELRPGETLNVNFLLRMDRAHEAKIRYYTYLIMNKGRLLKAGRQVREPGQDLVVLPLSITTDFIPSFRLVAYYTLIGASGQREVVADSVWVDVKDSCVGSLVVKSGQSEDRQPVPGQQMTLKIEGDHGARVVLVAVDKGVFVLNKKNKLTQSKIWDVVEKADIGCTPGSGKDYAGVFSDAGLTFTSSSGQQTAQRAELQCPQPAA
# Complement C3, sequence (P01024 672-1663 limits assumed): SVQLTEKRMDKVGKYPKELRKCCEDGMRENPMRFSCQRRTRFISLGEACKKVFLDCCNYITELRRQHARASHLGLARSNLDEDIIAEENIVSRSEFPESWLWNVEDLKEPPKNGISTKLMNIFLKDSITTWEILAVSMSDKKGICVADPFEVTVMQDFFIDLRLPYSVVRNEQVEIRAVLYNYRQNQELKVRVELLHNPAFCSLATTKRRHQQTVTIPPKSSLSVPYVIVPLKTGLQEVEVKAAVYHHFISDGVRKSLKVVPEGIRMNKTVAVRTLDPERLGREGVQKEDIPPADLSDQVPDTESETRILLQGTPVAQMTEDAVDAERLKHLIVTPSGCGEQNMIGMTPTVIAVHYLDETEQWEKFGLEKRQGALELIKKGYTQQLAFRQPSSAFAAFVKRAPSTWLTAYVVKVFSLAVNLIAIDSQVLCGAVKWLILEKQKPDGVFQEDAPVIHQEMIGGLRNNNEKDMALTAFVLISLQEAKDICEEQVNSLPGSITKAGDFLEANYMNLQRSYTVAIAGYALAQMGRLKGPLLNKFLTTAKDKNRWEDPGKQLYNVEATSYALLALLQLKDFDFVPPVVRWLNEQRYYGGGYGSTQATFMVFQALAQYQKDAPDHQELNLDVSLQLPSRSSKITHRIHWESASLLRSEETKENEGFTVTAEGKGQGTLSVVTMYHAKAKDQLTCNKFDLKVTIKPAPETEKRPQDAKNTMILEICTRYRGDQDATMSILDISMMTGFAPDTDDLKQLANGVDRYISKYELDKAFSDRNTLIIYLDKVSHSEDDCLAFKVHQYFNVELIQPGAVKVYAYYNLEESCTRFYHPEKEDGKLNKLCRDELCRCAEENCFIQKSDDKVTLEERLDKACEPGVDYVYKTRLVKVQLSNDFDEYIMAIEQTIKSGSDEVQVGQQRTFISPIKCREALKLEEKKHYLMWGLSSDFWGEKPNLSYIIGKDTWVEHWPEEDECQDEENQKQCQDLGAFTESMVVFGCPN
# Complement factor B, sequence (P00751 whole entry): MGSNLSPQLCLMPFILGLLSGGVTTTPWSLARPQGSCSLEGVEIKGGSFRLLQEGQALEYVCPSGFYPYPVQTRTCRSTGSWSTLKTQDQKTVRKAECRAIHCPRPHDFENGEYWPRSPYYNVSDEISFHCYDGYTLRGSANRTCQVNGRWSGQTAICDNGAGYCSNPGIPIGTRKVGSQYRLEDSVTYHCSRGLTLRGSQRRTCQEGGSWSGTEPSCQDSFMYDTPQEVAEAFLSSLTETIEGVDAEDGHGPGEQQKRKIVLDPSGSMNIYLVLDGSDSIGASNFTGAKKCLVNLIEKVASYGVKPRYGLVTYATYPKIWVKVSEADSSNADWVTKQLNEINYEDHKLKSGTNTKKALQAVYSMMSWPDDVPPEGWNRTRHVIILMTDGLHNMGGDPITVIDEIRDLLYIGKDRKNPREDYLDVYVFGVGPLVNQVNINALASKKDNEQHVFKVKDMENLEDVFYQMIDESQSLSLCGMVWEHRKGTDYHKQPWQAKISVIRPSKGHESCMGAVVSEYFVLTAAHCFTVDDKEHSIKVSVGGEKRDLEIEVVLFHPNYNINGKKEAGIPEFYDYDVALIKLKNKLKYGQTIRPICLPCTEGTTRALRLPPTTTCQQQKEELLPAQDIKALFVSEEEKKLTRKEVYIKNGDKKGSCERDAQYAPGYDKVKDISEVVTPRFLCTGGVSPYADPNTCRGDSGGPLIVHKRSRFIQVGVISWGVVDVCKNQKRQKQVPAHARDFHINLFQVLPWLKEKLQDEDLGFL
smiles,measurement,setting,value
Cn1cc(-c2cc(COc3ccccc3CC(=O)O)cc(-c3cccc(CC(N)=O)c3F)c2)cn1,IC50,Complement factor D [1],23 nM
CC[C@H](C)[C@H](NC(=O)[C@H](CS)NC(=O)[C@@H](NC(=O)[C@@H]1CCCN1C(=O)[C@@H]1CCCN1C(=O)[C@H](Cc1ccc(O)cc1)NC(=O)[C@H](CO)NC(=O)[C@H](CCCNC(=N)N)NC(=O)[C@H](CO)NC(=O)[C@H](CS)NC(=O)[C@H](Cc1ccc(O)cc1)NC(=O)CN)C(C)C)C(=O)N1CCC[C@H]1C(=O)N[C@@H](CC(=O)O)C(=O)O (H-GYCSRSYPPVCIPD-OH),IC50,[2],2700 nM
same,Ki,[3],180 nM
same,IC50,[4],220 nM
N=C(N)NCCC[C@@H](C(=O)O)N1Cc2nc(C(c3ccccc3)c3ccccc3)sc2C1=O,IC50,[5],320 nM
CCc1cccc(CC)c1-c1cc(OC(C)C)c2c(n1)CCCC2Nc1ccccc1CCO (stereo unspecified),half-life,[6],60 to 180 min
CCN1/C(=C/C=C/c2sc3ccccc3[n+]2CC)Sc2ccccc21,IC50,Integrin alpha-M/beta-2 [7],2.5 to 10 µM
same,IC50,Integrin alpha-M/beta-2 [8],330 nM
CC(=O)N[C@@H](CCCNC(=N)N)C(=O)N[C@@H](CC(C)C)C(=O)N[C@@H](CC(C)C)C(=O)N[C@@H](CC(C)C)C(=O)N[C@@H](C)C(=O)N[C@H](C=O)CCCNC(=N)N (Ac-RLLLAR-aldehyde),IC50,Complement C2 [9],7.3 µM
same,IC50,Complement C2 [10],500 to 1000 nM
same,IC50,Complement C2 [11],330 nM
CC[n+]1c(/C=C/C=C/N2CCCc3ccccc32)sc2ccc3ccccc3c21,IC50,Integrin alpha-M/beta-2 [7],2.5 to 10 µM
same,IC50,Integrin alpha-M/beta-2 [8],140 nM
CC(=O)N[C@@H](Cc1ccccc1)C(=O)N[C@H]1CCCNC(=O)[C@H](CCCNC(=N)N)NC(=O)[C@H](Cc2c[nH]c3ccccc23)NC(=O)[C@@H](CC2CCCCC2)NC(=O)[C@@H]2CCCN2C1=O,bioavailability,[12],≤ 2%
same,half-life,[6],1200 min
N=C(N)NCCC[C@H](Nc1nccc2[nH]c(C(c3ccccc3)c3ccccc3)nc12)C(=O)O,EC50,[13],15 nM
C[C@@H](C(=O)N(Cc1ccccc1F)C1Cc2ccccc2C1)N1CCc2ccccc2[C@@H]1c1cccc2ccccc12,Ki,[14],15.2 nM
N=C(N)NCCC[C@H](NC(=O)COCC(c1ccccc1)c1ccccc1)C(=O)O,IC50,[15],28 nM
same,IC50,[16],200 nM
CC[C@H](C)[C@H](NC(C)=O)C(=O)N[C@H]1CSSC[C@@H](C(=O)N(C)[C@H](C(N)=O)[C@@H](C)CC)NC(=O)[C@H](CCCNC(=N)N)NC(=O)[C@H](Cc2c[nH]cn2)NC(=O)[C@H](C)NC(=O)CN(C)C(=O)[C@H](Cc2c[nH]c3ccccc23)NC(=O)[C@H](CC(=O)O)NC(=O)[C@H](CCC(N)=O)NC(=O)[C@H](Cc2cn(C)c3ccccc23)NC(=O)[C@H](C(C)C)NC1=O,IC50,Complement C3,62 nM
COc1cc(C)c2[nH]ccc2c1C(C)(C)c1nc2cc(C#N)cnc2[nH]1,IC50,Complement factor B,30 nM
CC(=O)Oc1ccc(Cc2ccc(OC(C)=O)c(C(=O)O)c2)cc1C(=O)O,IC50,[17],100 nM
same,IC50,[18],100 nM
N=C(N)NCCC[C@H](NC(=O)c1cccn(Cc2ccccc2Br)c1=O)C(=O)O,IC50,[19],50 nM
CC(C)C[C@H](NC(=O)[C@H](CCCCN)NC(=O)[C@@H](NC(=O)[C@H](CS)NC(=O)[C@@H](NC(=O)[C@H](C)NC(=O)[C@H](CO)NC(=O)[C@H](CCCCN)NC(=O)CNC(=O)[C@H](CC(=O)O)NC(=O)[C@H](CO)NC(=O)CNC(=O)[C@H](CS)NC(=O)[C@H](CCCNC(=N)N)NC(=O)[C@H](CS)NC(=O)[C@@H](NC(=O)[C@H](CC(N)=O)NC(=O)[C@H](CS)NC(=O)[C@H](CCCCN)NC(=O)[C@H](CC(=O)O)NC(=O)[C@H](CCCCN)NC(=O)[C@H](Cc1ccccc1)NC(=O)[C@@H](NC(=O)[C@@H](NC(=O)CNC(=O)[C@@H]1CCCN1C(=O)[C@H](CCC(=O)O)NC(=O)[C@H](CS)NC(=O)[C@@H](NC(=O)[C@@H](NC(=O)[C@@H](N)CCC(=O)O)C(C)C)[C@@H](C)O)[C@@H](C)O)[C@@H](C)O)[C@@H](C)O)C(C)C)[C@@H](C)O)C(=O)N[C@@H](Cc1c[nH]c2ccccc12)C(=O)N[C@@H](CS)C(=O)N[C@@H](CC(N)=O)C(=O)N[C@@H](CCC(N)=O)C(=O)O (H-EVTCEPGTTFKDKCNTCRCGSDGKSAVCTKLWCNQ-OH),IC50,[20],66 nM
same,Ki,[21],6 nM
CC(=O)c1nn(CC(=O)N2C[C@H](F)C[C@H]2C(=O)Nc2cccc(Br)n2)c2ccc(-c3cnc(C)nc3)cc12,IC90,Complement factor D [22],89 nM
COc1ccc2c(c1)C(C(=O)N(Cc1ccc(N(C)C)cc1)c1ccc(C(C)C)cc1)CCC2 (stereo unspecified),bioavailability,[12],70%
same,half-life,[6],60 to 180 min
CC(=O)Oc1ccc(-c2ccc(OC(C)=O)c(C(=O)O)c2)cc1C(=O)O,IC50,[17],100 nM
same,IC50,[18],100 nM
